Key:
[1] = tested on: metastatic melanoma; settings: cited from earlier work
[2] = tested on: mantle cell lymphoma (MCL) cell lines; assay: Viability of MCL cell lines, CELLTITER-GLO assay; format: cell-based
Text: FIG. 13 is a line graph showing viability (percent) of various mantle cell lymphoma (MCL) cancer cell lines (SP-53, SP-49, Granta, JEKO, and TVM) following treatment with various concentrations (M) of the BH3 mimetic ABT-737.
FIGS. 14A-14D are plots showing viability (Relative Light Units) following a CELLTITER-GLO® assay of various mantle cell lymphoma (MCL) cancer cell lines: JVM-2 (FIG. 14A), Granta-519 (FIG. 14B), JEKO-1 (FIG. 14C), and SP-53 (FIG. 14D) following treatment with various concentrations (M) of the BH3 mimetic BIM SAHB (-▪-), or a BIM SAHB R153D variant control (-●-).
A panel of mantle cell lymphoma (MCL) cell lines were exposed to BIM SAHBA, BIM SAHBA(R153D), or vehicle alone for 24 hours in OptiMEM medium followed by viability testing using the CELLTITER-GLO® (Promega) assay.

[3] = tested on: EML cells; assay: GFP transfection of EML cells by nucleofection, FACS; format: cell-based, mouse; settings: FIG. 2B; for GFP expression when ATP in the E-PAP reaction was replaced by ATP analog: without tail extension
Protocol: Electroporation was performed using an Amaxa NUCLEOFECTOR™-II (Amaxa Biosystems, Cologne, Germany) in accordance with manufacturer recommendations. Jurkat and B cell lines were transfected using NUCLEOFECTOR™-II solution V and the set of recommended regimes for electroporation. EML cells were transfected using solutions V, T and R and different regimes of electroporation. T lymphocytes were transfected using T cell NUCLEOFECTOR™-II solution and different regimes of electroporation. Alternative methods of nucleic acids delivery were also used: cationic liposome mediated transfection was performed using LIPOFECTIN® or LIPOFECTAMIN® (Invitrogen). Electroporation was also performed with the ECM 830 (BTX) (Harvard Instruments, Boston, Mass.) or the Gene Pulser II (BioRad, Denver, Colo.), Multiporator (Eppendorf, Hamburg Germany). All procedures were performed as directed by the manufacturers. pmaxGFP plasmid DNA (Amaxa Biosystems) was used as the DNA control. The efficiency of transfection (ET) was determined 18h after transfection by fluorescence activated cell sorting (FACS). In some experiments transfectants were further analyzed each 24h until GFP could not longer be detected. Cell viability was determined by trypan blue dye exclusion.
Flow cytometry was performed using the fluorescent activated cell sorting (FACS®) assay. Flow cytometry was performed on cell subpopulations was performed at the Yale Cancer Center Flow Cytometry Shared Resource, using a FACS® Calibur flow cytometer (Becton-Dickinson, San Jose, Calif.) equipped with 488 nm laser and the standard filter setup. Fluorescence signals were collected on a logarithmic scale. A minimum of ten thousand cells were interrogated for each sample. Analysis of data was performed using FlowJo software (Tree Star, Inc., San Carlos, Calif.). The expression efficiency was calculated as the difference between the geometric mean of fluorescence of the transfectants and control (mock transfected) cells. […]

[4] = tested on: caspase 3/7; assay: Caspase 3/7 activation in MCL cell lines; format: cell-based; settings: JVM-2, Granta-519, JEKO-1, SP-53
Text: FIGS. 15A-15D are plots showing caspase 3/7 activation (Relative Light Units) in various mantle cell lymphoma (MCL) cancer cell lines: JVM-2 (FIG. 15A), Granta-519 (FIG. 15B), JEKO-1 (FIG. 15C), and SP-53 (FIG. 15D) following treatment with various concentrations (μM) of the BH3 mimetic SAHB (right hand bar in each pair), or a SAHB R153D variant control (left hand bar in each pair).

[5] = tested on: GFP mRNA; assay: siRNA inhibition of GFP mRNA expression in Jurkat cells; format: cell-based; settings: Jurkat cells with EGFP mRNA; the day after transfection
Text: Jurkat T cells were electroporated with different amount of FITC labeled siRNA. The condition and the kinetics of siRNA transfection were identical to mRNA transfection.

Q: Which overall response rate [1] does the source give for nivolumab: anti-PD-1 antibody here?
A: 30-40%

Q: Which effect on viability ([2]; FIG. 13, SP-53, SP-49, Granta, JEKO, JVM) does the source give for `CN(C)CC[C@H](CSc1ccccc1)Nc1ccc(S(=O)(=O)NC(=O)c2ccc(N3CCN(Cc4ccccc4-c4ccc(Cl)cc4)CC3)cc2)cc1[N+](=O)[O-]` [ABT-737] here?
A: reduced viability in a subset of the MCL cell lines

Q: For `Nc1ncnc2c1nnn2[C@@H]1O[C@H](CO)[C@@H](O)[C@H]1O` [8-azaadenosine], which “GFP expression when ATP in the E-PAP reaction was replaced by ATP analog” value [3] is on record?
A: increased

Q: Which results are given for “synthetic peptide modeled on the BIM BH3 death domain with all-hydrocarbon crosslink; IWIAQELRXIGDXFNAYYARR (SEQ ID NO:1) [BIM SAHBA]”?
A: EC50s, impaired viability ([2]; 24 hours, OptiMEM medium, panel of MCL cell lines): low micromolar range; caspase 3/7 activation [4]: correlated with caspase 3/7 activation

Q: For `CO[C@H]1[C@@H](O)[C@H](n2c[n+](C)c3c(=O)[nH]c(N)nc32)O[C@@H]1COP(=O)(O)OP(=O)(O)OP(=O)(O)OC[C@H]1O[C@@H](n2cnc3c(=O)[nH]c(N)nc32)[C@H](O)[C@@H]1O` [ARCA, 3′-O-Methyl-m7G[5′]ppp[5′]G], which “increase of GFP expression compared to the standard capping procedure” value ([3]; GFP mRNA capped with ARCA) is on record?
A: two-fold increase

Q: For “anti-GFP siRNA: anti-GFP siRNA (GCAAGCUGACCCUGAAGUUCAU) (chemistry not given here)”, which “inhibition of GFP mRNA expression” value [5] is on record?
A: 80%

Q: With `Nc1ncnc2c1ncn2[C@@H]1O[C@H](CO)C[C@H]1O` [cordycepin] as the compound, how does the “GFP expression when ATP in the E-PAP reaction was replaced by ATP analog” value [3] read?
A: increased

Source: patent publication US10155038B2, “Cells prepared by transient transfection and methods of use thereof” (Yale University, priority 2007, dated 2018)
